pIC50: −log10 of the molar value. *1 amine or outer side, *2 acyl side, *3 side chain or, on linkers, in order; H or OH if unused. Where a SMILES comes first, the peptide text is derived from it. Side-chain parts run from the residue outwards. The star is where a group is joined. C18 diacid = O=C(O)CCCCCCCCCCCCCCCCC(=O)*; γGlu = O=C(O)[C@H](CCC(=O)[*:2])N[*:1]; AEEA = NCCOCCOCC(=O)O
Assays:
Format in all cases: cell-based
[1] = target: T1, GLP2 receptor (GLP2R) (Homo sapiens, UniProt O95838); assay: cAMP assay - selectivity, antagonism at GLP2 receptor; settings: Table 3B; COS-7 cells; agonist GLP2
T1 construct: expressed in transfected cells; host or cells: COS-7 (transient)
T1 sequence (O95838 1-553): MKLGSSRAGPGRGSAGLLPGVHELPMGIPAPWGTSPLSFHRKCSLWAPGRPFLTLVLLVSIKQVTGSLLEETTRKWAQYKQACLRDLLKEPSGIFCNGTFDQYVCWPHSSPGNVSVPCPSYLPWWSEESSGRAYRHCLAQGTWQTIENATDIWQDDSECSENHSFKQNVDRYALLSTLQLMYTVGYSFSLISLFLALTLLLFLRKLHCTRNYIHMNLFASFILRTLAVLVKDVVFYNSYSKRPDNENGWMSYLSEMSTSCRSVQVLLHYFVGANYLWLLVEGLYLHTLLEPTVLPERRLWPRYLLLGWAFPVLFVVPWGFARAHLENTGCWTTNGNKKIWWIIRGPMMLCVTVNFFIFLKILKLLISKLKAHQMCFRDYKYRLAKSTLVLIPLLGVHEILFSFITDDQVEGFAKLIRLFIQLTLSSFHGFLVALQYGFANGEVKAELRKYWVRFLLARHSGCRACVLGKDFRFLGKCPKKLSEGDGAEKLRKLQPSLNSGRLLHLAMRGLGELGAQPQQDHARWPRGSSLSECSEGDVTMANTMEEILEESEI

[2] = target: T2, human GIP receptor (Homo sapiens, UniProt P48546); assay: cAMP accumulation, agonism (DiscoveRx HitHunter cAMP XS assay); parameters: host or cells: COS-7 (transient, calcium phosphate; pCMV-Script vector); settings: Table 1B; DiscoveRx; COS-7 cells
T2 sequence (P48546 22-466): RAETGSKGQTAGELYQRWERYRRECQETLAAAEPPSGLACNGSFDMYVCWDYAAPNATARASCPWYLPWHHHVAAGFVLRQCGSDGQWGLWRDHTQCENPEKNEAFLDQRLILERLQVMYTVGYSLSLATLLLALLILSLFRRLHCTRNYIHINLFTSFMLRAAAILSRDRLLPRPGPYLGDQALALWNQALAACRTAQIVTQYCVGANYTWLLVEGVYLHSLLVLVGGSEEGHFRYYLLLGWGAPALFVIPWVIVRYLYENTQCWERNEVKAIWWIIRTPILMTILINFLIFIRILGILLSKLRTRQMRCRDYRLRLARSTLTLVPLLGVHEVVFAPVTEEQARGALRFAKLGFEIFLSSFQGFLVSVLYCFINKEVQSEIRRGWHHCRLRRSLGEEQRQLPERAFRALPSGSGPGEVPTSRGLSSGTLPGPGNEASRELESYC
Procedure, shortened: (§1)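 cAMP accumulation measured by HitHunter cAMP XS in COS-7 cells transiently expressing human GIP receptor, after 30 min in HBS with 1 mM IBMX at 37 °C. Antagonists preincubated 10 min before GIP giving 50-80% of maximum, then 20 min more; agonist mode used 30 min ligand exposure.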

[3] = target: T3, glucagon receptor (GcgR) (Homo sapiens, UniProt P47871); assay: cAMP assay - selectivity, antagonism at glucagon receptor; settings: Table 3A; COS-7 cells; agonist glucagon at 50-80% of maximal cAMP
T3 construct: expressed in transfected cells; host or cells: COS-7 (transient)
T3 sequence (P47871 26-477, species assumed): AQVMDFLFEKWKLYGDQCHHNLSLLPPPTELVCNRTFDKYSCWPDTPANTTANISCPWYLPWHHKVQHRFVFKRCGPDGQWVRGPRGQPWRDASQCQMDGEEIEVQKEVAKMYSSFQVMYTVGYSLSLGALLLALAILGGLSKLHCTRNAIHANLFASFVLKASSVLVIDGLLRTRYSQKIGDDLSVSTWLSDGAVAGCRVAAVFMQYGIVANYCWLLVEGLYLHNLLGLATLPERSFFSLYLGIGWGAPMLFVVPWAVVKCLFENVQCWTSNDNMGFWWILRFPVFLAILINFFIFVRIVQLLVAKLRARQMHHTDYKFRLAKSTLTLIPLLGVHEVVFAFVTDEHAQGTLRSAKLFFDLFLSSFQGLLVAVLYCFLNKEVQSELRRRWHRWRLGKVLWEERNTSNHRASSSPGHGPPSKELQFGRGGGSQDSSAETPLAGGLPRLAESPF

[4] = target: T2, human GIP receptor; assay: cAMP agonism (CisBio cAMP Dynamic 2 HTRF assay); settings: HEK293, read-out: cAMP agonism, % Efficacy, Table 1C, HEK-293 cells
Method: To test for agonistic properties at the GIP receptor, compounds were diluted and added to cells as described above and incubated for 30 min at 37° C. The resulting increase in intracellular cAMP was determined using the CisBio cAMP Dynamic 2 HTRF Assay Kit as described above.

[5] = target: T4, GLP1 receptor (GLP1R) (Homo sapiens, UniProt P43220); assay: cAMP assay - selectivity, antagonism at GLP1 receptor; settings: Table 3A; COS-7 cells; agonist GLP1 at 50-80% of maximal cAMP
T4 construct: expressed in transfected cells; host or cells: COS-7 (transient)
T4 sequence (P43220 24-463, species assumed): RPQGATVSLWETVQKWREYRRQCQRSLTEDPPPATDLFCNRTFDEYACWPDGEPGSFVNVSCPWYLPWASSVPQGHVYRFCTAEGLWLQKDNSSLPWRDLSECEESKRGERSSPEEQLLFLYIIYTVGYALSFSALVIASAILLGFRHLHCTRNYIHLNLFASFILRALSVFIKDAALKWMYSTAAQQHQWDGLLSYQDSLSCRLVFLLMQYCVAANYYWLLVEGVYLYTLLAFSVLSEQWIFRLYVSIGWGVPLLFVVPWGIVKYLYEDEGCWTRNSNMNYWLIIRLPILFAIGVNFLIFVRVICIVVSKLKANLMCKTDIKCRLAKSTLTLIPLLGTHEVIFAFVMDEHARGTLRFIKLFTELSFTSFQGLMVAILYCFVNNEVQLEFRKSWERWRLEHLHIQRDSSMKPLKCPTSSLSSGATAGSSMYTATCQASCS

[6] = target: T5, secretin receptor (SCTR) (Homo sapiens, UniProt P47872); assay: cAMP assay - selectivity, antagonism at secretin receptor; settings: Table 3B; COS-7 cells; agonist secretin
T5 construct: expressed in transfected cells; host or cells: COS-7 (transient)
T5 sequence (P47872 23-440, species assumed): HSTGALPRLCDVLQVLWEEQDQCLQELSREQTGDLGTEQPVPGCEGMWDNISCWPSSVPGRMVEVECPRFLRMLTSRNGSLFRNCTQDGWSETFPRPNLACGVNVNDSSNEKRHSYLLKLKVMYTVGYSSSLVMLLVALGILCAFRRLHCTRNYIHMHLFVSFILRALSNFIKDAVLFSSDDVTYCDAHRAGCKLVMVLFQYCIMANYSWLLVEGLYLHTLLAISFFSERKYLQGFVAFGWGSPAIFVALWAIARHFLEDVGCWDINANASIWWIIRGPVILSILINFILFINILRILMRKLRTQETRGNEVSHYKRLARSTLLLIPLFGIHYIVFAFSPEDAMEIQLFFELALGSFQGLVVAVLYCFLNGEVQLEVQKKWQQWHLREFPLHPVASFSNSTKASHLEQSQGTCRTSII

[7] = target: T2, human GIP receptor; assay: cAMP accumulation, antagonism (DiscoveRx HitHunter cAMP XS assay); parameters: host or cells: COS-7 (transient, calcium phosphate; pCMV-Script vector); settings: for pIC50: IC50-value (GIPR antagonism), Examples 1 and 2, values of Tables 1B and 2; for cAMP antagonism, % inhib / IC50: Table 1B; for cAMP antagonism, % inhib / GIPR, Antagonism, % inhib / IC50: DiscoveRx; for cAMP antagonism, % inhib / GIPR, Antagonism, % inhib: COS-7 cells; for cAMP antagonism, % inhib: % inhibition of Emax; for GIPR, Antagonism, % inhib: Table 3A/3B; for IC50: cAMP antagonism, nM (IC50), transiently transfected COS-7 cells
Procedure, shortened: as §1

Question: How did the “GLP-2R, Antagonism” value [1] turn out when `CC[C@H](C)[C@H](NC(=O)[C@H](CO)NC(=O)[C@H](Cc1ccc(O)cc1)NC(=O)[C@H](CC(=O)O)NC(=O)[C@H](CO)NC(=O)[C@@H](NC(=O)[C@H](Cc1ccccc1)NC(=O)[C@@H](NC(=O)CNC(=O)[C@@H](N)CO)[C@@H](C)O)[C@@H](C)CC)C(=O)N[C@@H](C)C(=O)N[C@@H](CCSC)C(=O)N[C@@H](CC(=O)O)C(=O)N[C@@H](CCCNC(=N)N)C(=O)N[C@H](C(=O)N[C@@H](CCCCNC(=O)COCCOCCNC(=O)COCCOCCNC(=O)COCCOCCNC(=O)CC[C@H](NC(=O)CCCCCCCCCCCCCCCCC(=O)O)C(=O)O)C(=O)N[C@@H](CCC(N)=O)C(=O)N[C@@H](CCC(N)=O)C(=O)N[C@@H](CC(=O)O)C(=O)N[C@@H](Cc1ccccc1)C(=O)N[C@H](C(=O)N[C@@H](CC(N)=O)C(=O)N[C@@H](Cc1c[nH]c2ccccc12)C(=O)N[C@@H](CC(C)C)C(=O)N[C@@H](CC(C)C)C(=O)N[C@@H](C)C(=O)N[C@@H](CCC(N)=O)C(=O)N[C@@H](CCCNC(=N)N)C(N)=O)C(C)C)[C@@H](C)CC` [AT385] (H-SGTFISDYSIAMDRIK([AEEA-AEEA-AEEA-γGlu-C18 diacid])QQDFVNWLLAQR-NH2; N-terminus assumed) was run?
Answer: No antagonism

Question: What about the “cAMP agonism, Emax” value [2] of the same compound?
Answer: No Agonism

Question: And the “Glucagon R, Antagonism, nM” value [3]?
Answer: No antagonism

Question: And the Emax [4]?
Answer: 3%

Question: And the “GLP-1R, Antagonism, nM” value [5]?
Answer: No antagonism

Question: What about the “Secretin R, Antagonism” value [6] of the same compound?
Answer: No antagonism

Question: And the pIC50 [7]?
Answer: 8.40

Question: And the “cAMP antagonism, % inhib” value [7]?
Answer: 100%

Question: What about the “GIPR, Antagonism, % inhib” value [7] of the same compound?
Answer: 100.0%

Question: And the IC50 [7]?
Answer: 4 nM

Question: Which “GLP-2R, Antagonism” value [1] does the source give for `CC[C@H](C)[C@H](NC(=O)[C@H](CO)NC(=O)[C@H](Cc1ccc(O)cc1)NC(=O)[C@H](CC(=O)O)NC(=O)[C@H](CO)NC(=O)[C@@H](NC(=O)[C@H](Cc1ccccc1)NC(=O)[C@@H](NC(=O)CNC(=O)[C@@H](N)CO)[C@@H](C)O)[C@@H](C)CC)C(=O)N[C@@H](C)C(=O)N[C@@H](CCSC)C(=O)N[C@@H](CC(=O)O)C(=O)N[C@@H](CCCNC(=N)N)C(=O)N[C@H](C(=O)N[C@@H](CCCCNC(=O)COCCOCCNC(=O)COCCOCCNC(=O)CC[C@H](NC(=O)CCCCCCCCCCCCCCCCC(=O)O)C(=O)O)C(=O)N[C@@H](CCC(N)=O)C(=O)N[C@@H](CCC(N)=O)C(=O)N[C@@H](CC(=O)O)C(=O)N[C@@H](Cc1ccccc1)C(=O)N[C@H](C(=O)N[C@@H](CC(N)=O)C(=O)N[C@@H](Cc1c[nH]c2ccccc12)C(=O)N[C@@H](CC(C)C)C(=O)N[C@@H](CC(C)C)C(=O)N[C@@H](C)C(=O)N[C@@H](CCC(N)=O)C(=O)N[C@@H](CCCNC(=N)N)C(N)=O)C(C)C)[C@@H](C)CC` [AT384] (H-SGTFISDYSIAMDRIK([AEEA-AEEA-γGlu-C18 diacid])QQDFVNWLLAQR-NH2; N-terminus assumed) here?
Answer: No antagonism

Question: And the “cAMP agonism, Emax” value [2]?
Answer: No Agonism

Question: What about the “Glucagon R, Antagonism, nM” value [3] of the same compound?
Answer: No antagonism

Question: What about the Emax [4] of the same compound?
Answer: 0%

Question: What about the “GLP-1R, Antagonism, nM” value [5] of the same compound?
Answer: No antagonism

Question: What about the “Secretin R, Antagonism” value [6] of the same compound?
Answer: No antagonism

Question: And the pIC50 [7]?
Answer: 8.10

Question: What about the “cAMP antagonism, % inhib” value [7] of the same compound?
Answer: 100%

Question: And the “GIPR, Antagonism, % inhib” value [7]?
Answer: 100.0%

Question: And the IC50 [7]?
Answer: 8 nM

Reference: patent US12187773B2, “Modified GIP peptide analogues” (Antag Therapeutics ApS, priority 2018, dated 2025)
